Assay results: patent publication US20240391930A1, “SPIROCYCLIC BICYCLIC MODULATORS OF CHOLESTEROL BIOSYNTHESIS AND THEIR USE FOR PROMOTING REMYELINATION” (GENENTECH, INC., priority 2021, published 2024)

How the values were obtained:
[1] = target: T1, human emopamil binding protein and human 7-dehydrocholesterol reductase (hEBP-DHCR7) (Homo sapiens, UniProt Q15125); experiment: hEBP-DHCR7 radioligand filtration binding assay; conditions: membranes of HEK293 co-expressing hEBP and DHCR7; [3H] 2-thia-6-azaspiro[3.4]octane radioligand; 8 doses 0.06 to 5000 nM
T1 construct: expressed in transfected cells; host or cells: HEK 293 cells, transient transfection with 2 DNA constructs
T1 sequence (Q15125 whole entry): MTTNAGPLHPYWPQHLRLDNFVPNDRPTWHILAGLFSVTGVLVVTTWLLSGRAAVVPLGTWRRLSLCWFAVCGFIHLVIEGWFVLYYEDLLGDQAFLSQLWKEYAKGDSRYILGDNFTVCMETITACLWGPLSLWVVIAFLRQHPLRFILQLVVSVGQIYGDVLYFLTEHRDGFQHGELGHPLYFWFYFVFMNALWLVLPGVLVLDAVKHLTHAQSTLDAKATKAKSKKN
Protocol: Membrane Preparation: human emopamil binding protein and human 7-dehydrocholesterol reductase co-expressing cells were generated by transient transfecting host human embryonic kidney (HEK) 293 cells with 2 DNA constructs containing each protein's coding sequence. Cells were suspension cultured at 37° C. with 5% CO2 in […] 293 Expression Medium (Thermofisher). Whole cell membrane was prepared by harvesting the cell pellet, adding cold membrane buffer (50 mM Tris, pH7.5, lx Roche COMPLETE EDTA-free protease inhibitor cocktail) 10 times volume of the cell pellets weight, lysing cell pellet on ice by using Dounce homogenizer, spinning at 200 g 4° C. for 15 min, collecting supernatant and spinning again at 25000 g 4° C. for 50 min, transferring pellet to Dounce homogenizer, re-suspending pellet by homogenizing in membrane buffer on ice to reach ˜25 mg/mL, then keeping whole cell membrane aliquots at −80° C.
Compounds were prepared in a 96-well U bottom plate using an Echo550 machine and 10 mM compound DMSO stock solution, followed by an 8-dose 5-fold serial dilutions protocol with final testing compound concentration ranging from 0.06 to 5000 nM, with DMSO back fill to 100 nL/well and n=2. […] The UniFilter-96 GF/B plates were pre-treated by adding 50 µl/well of 0.3% (v/v) PEI to UniFilter-96 GF/B plates. The plates were sealed and incubated at 4° C. for 3 hrs. Then, the plates were washed with ice-cold assay buffer 3 times. The radioligand binding assay was prepared by adding assay buffer diluted hEBP-DHCR7 membrane at 66.7 μg/ml×150 l/well into the 96-well compound plate to reach 10 μg membrane per well. Then, the assay buffer diluted [3H]—((S)-6-(2-Methyl-3-(6-(trifluoromethyl)pyridin-3-yl)propyl)-2-thia-6-azaspiro[3.4]octane 2,2-dioxide or (R)-6-(2-Methyl-3-(6-(trifluoromethyl)pyridin-3-yl)propyl)-2-thia-6-azaspiro[3.4]octane 2,2-dioxide) was added at 25 nM×50 l/well. Following this, the plate was centrifuged at 1000 rpm for 30 secs. The plate was then sealed and agitated at 600 rpm at 22° C. for 5 min, and then incubated at 22° C. for 3 hrs. The incubation was stopped by transferring the binding solution to the pre-treated UniFilter-96 GF/B plate, vacuum filtrated, and then washed four times with ice-cold assay buffer. Following this, the plates were dried at 37° C. for 45 min. The plates were then sealed at the bottom. 40 µl/well of scintillation cocktail was added to the plates. A MicroBeta2 microplate counter was then used to read the plate and analyze the data. For reference and test compounds, the results are expressed as % Inhibition, using the normalization equation: N=100−100×(U−C2)/(C1−C2), where U is the unknown value, C1 is the average of high controls, and C2 is the average value of low controls. The IC50 was determined by fitting percentage of inhibition as a function of compound concentrations with Hill equation using XLfit. Results are expressed as hEBP-DHCR7 Ki (uM) in Table 4. Ki was calculated as described above; * indicates isolated isomer or isomers, but that the stereochemistry has not been assigned.

[2] = test system: zymostenol accumulation in EpiSC-derived OPCs (EBP); experiment: GC/MS-based sterol profiling (zymostenol accumulation); type: cell-based; conditions: Mus musculus, 24 hours, 8 doses from 0.15 nM to 333 nM, read-out: Zymostenol GCMS EC50
Protocol: (§1) To assess effects of treatments on OPCs, all treatments were assayed in two or more independent platings of epiblast stem cell-derived OPCs (EpiSC). EpiSC-derived OPCs were obtained using in vitro differentiation protocols and culture conditions described previously (Najm et al, 2011, Nature Methods). OPCs were expanded and frozen down in aliquots. OPCs were thawed into growth conditions for at least one passage before use in further assays.
Sterols were monitored using a modified Folch wash protocol (Hubler et al, 2018, Nature). EpiSC-derived OPCs were plated at 100,000 cells per well in PO- and laminin-coated 96-well plates in N2B27 media without growth factors. After 24 hours, cells were rinsed with saline and plates were frozen. Cholesterol-d7 standard was then added to each well before drying under nitrogen stream and derivatization with 55 μl of bis(trimethylsilyl) trifluoroacetamide. After derivatization, 2 μl were analyzed by gas chromatography/mass spectrometry using an Agilent 5973 Network Mass Selective Detector equipped with a 6890 gas chromatograph system and a HP-5MS capillary column (30 m×0.25 mm×[…]). Samples were analyzed in full scan mode using electron impact ionization; ion fragment peaks were integrated to calculate sterol abundance, and quantitation was relative to cholesterol-d7. The following ion fragments were used to quantitate each metabolite: cholesterol-d7 (465), FF-Mas (482), cholesterol (368), zymostenol (458), zymosterol (456), Desmosterol (456, 343), 7-dehydrocholesterol (456, 325), lanosterol (393), lathosterol (458), 14-dehydrozymostenol (456, 351). […] All standards were obtained from Avanti Polar Lipids unless otherwise indicated. Calibration curves were generated by injecting varying concentrations of sterol standards and maintaining a fixed amount of cholesterol-D7. For normalized zymostenol accumulation results, the total amount of zymostenol measured after drug treatment was divided by the total amount of zymostenol accumulated after 24 hr treatment with 100 nM positive control reference.

EpiSC-derived OPCs = experiment: In vitro phenotypic screening of OPCs (MBP high-content imaging); type: cell-based; conditions: Mus musculus, 72 h; percentage of MBP-positive oligodendrocytes, 3 days, 0.5 nM to 1000 nM; read-out: OPC EC50
Protocol: as §1
EpiSC-derived OPCs were grown and expanded in poly-L-ornithine (PO) and laminin-coated flasks in N2B27 media (DMEM/F12 (Gibco), N2-MAX (R&D Systems), B-27 (ThermoFisher), and GlutaMax (Gibco)) supplemented with FGF2 ([…], R&D systems, 233-FB-025) and PDGF-AA ([…], R&D systems, 233-AA-050) before harvesting for experiments. The cells were seeded onto poly-L-ornithine or poly-D-lysine coated CellCarrier Ultra plates (PerkinElmer) coated with laminin (Sigma, L2020) at a density of 150,000/cm^2 in N2B27 media without growth factors. For dose-response testing, a 1000× compound stock in dimethyl sulphoxide (DMSO) was added to assay plates, resulting in 8-point dose curves with final concentrations between 1000 nM and 0.5 nM. Positive controls and DMSO vehicle controls were included in each assay plate. Cells were incubated under standard conditions (37° C., 5% CO2) for 3 days and fixed with 4% paraformaldehyde (PFA) in phosphate buffered saline (PBS) for 20 min. Fixed plates were washed with PBS, permeabilized with 0.1% Triton X-100, and blocked with 10% donkey serum (v/v) in PBS for 40 min. Then, cells were labelled with MBP antibodies (Abcam, ab7349; 1:200) for 2 h at room temperature, washed with PBS, and stained with Alexa Fluor conjugated secondary antibodies (1:500) for 45 min. Nuclei were visualized by DAPI staining (Sigma; 1 μg/ml), followed by further PBS washes.
Cells and cell culture plates were imaged on the Operetta High Content Imaging and Analysis system (PerkinElmer). Analysis (PerkinElmer Harmony and Columbus software) began by identifying intact nuclei stained by DAPI. The peri-nuclear region of each cell was then cross-referenced with the […] (MBP) stain to identify oligodendrocyte nuclei, and from this the percentage of oligodendrocytes was calculated.

CC(C)(C)n1nc(C(F)(F)F)cc1[C@H]1[C@@H]2C[C@@H](N3CCC4(C3)CS(=O)(=O)C4)C[C@@H]21 (single isomer, unassigned) [Compound 57]
Ki [1]: 0.026 µM | EC50 [2]: 0.0035 µM | EC50 (EpiSC-derived OPCs): 0.018 µM

CCn1nc(-c2ccccn2)cc1[C@H]1[C@@H]2C[C@H](N3CCC4(C3)CS(=O)(=O)C4)C[C@@H]21 [Compound 73, 6-((1R,3r,5S,6r)-6-(1-ethyl-3-(pyridin-2-yl)-1H-pyrazol-5-yl)bicyclo[3.1.0]hexan-3-yl)-2-thia-6-azaspiro[3.4]octane 2,2-dioxide]
Ki [1]: 0.0591 µM | EC50 [2]: 0.032 µM | EC50 (EpiSC-derived OPCs): 0.092 µM

CCn1nc(-c2ccnc(C(F)(F)F)c2)cc1[C@H]1[C@@H]2C[C@H](N3CCC4(C3)CS(=O)(=O)C4)C[C@@H]21 [Compound 27, 6-((1R,3r,5S,6r)-6-(1-ethyl-3-(2-(trifluoromethyl)pyridin-4-yl)-1H-pyrazol-5-yl)bicyclo[3.1.0]hexan-3-yl)-2-thia-6-azaspiro[3.4]octane 2,2-dioxide]
Ki [1]: 0.0116 µM | EC50 [2]: 0.0023 µM | EC50 (EpiSC-derived OPCs): 0.0016 µM

CC(C)(C)n1nc(C(F)(F)F)cc1[C@H]1[C@@H]2C[C@H](N3CCC4(CC3)CS(=O)(=O)C4)C[C@@H]21 [Compound 56, 7-((1R,3r,5S,6r)-6-(1-(tert-butyl)-3-(trifluoromethyl)-1H-pyrazol-5-yl)bicyclo[3.1.0]hexan-3-yl)-2-thia-7-azaspiro[3.5]nonane 2,2-dioxide]
EC50 [2]: 0.0057 µM | EC50 (EpiSC-derived OPCs): 0.019 µM

CC(C)n1nc(-c2cncc(C(F)(F)F)c2)cc1[C@H]1[C@@H]2C[C@H](N3CC[C@]4(CCS(=O)(=O)C4)C3)C[C@@H]21 (single isomer, unassigned) [Compound 10*]
Ki [1]: 0.0199 µM | EC50 [2]: 0.0048 µM | EC50 (EpiSC-derived OPCs): 0.013 µM

CCn1nc(-c2cncc(F)c2)cc1[C@H]1[C@@H]2C[C@@H](N3CCC4(C3)CS(=O)(=O)C4)C[C@@H]21 (single isomer, unassigned) [Compound 68*]
Ki [1]: 0.0862 µM | EC50 [2]: 0.014 µM | EC50 (EpiSC-derived OPCs): 0.06 µM

CC(C)n1nc(-c2cncc(C(F)(F)F)c2)cc1[C@H]1[C@@H]2C[C@@H](N3CC[C@@]4(CCS(=O)(=O)C4)C3)C[C@@H]21 (single isomer, unassigned) [Compound 7*]
Ki [1]: 0.0173 µM | EC50 [2]: 0.0089 µM | EC50 (EpiSC-derived OPCs): 0.037 µM

CCn1nc(-c2cncc(C(F)(F)F)c2)cc1[C@H]1[C@@H]2C[C@@H](N3CCC4(CC3)CS(=O)(=O)C4)C[C@@H]21 (single isomer, unassigned) [Compound 53*]
Ki [1]: 0.0973 µM | EC50 [2]: 0.0068 µM | EC50 (EpiSC-derived OPCs): 0.033 µM

CC(C)n1nc(C(F)(F)F)cc1[C@H]1[C@@H]2C[C@H](N3CCC4(CC3)CS(=O)(=O)C4)C[C@@H]21 (single isomer, unassigned) [Compound 44*]
Ki [1]: 0.027 µM | EC50 [2]: 0.0068 µM | EC50 (EpiSC-derived OPCs): 0.014 µM

CC(C)(C)n1nc(-c2cccc(C(F)(F)F)c2)nc1[C@H]1[C@@H]2C[C@@H](N3CCC4(C3)CS(=O)(=O)C4)C[C@@H]21 (single isomer, unassigned) [Compound 75]
Ki [1]: 0.0149 µM | EC50 [2]: 0.0022 µM | EC50 (EpiSC-derived OPCs): 0.0062 µM

CC(C)(C)n1nc(C(F)(F)F)cc1[C@H]1[C@@H]2C[C@H](N3CCC4(C3)CS(=O)(=O)C4)C[C@@H]21 (single isomer, unassigned) [Compound 58]
Ki [1]: 0.012 µM | EC50 [2]: 0.0033 µM | EC50 (EpiSC-derived OPCs): 0.019 µM

CC(C)n1nc(C(F)(F)F)cc1[C@H]1[C@@H]2C[C@@H](N3CCC4(CC3)CS(=O)(=O)C4)C[C@@H]21 (single isomer, unassigned) [Compound 43*]
Ki [1]: 0.0503 µM | EC50 [2]: 0.011 µM | EC50 (EpiSC-derived OPCs): 0.048 µM

CCn1nc(-c2cccnc2)cc1[C@H]1[C@@H]2C[C@H](N3CCC4(C3)CS(=O)(=O)C4)C[C@@H]21 (single isomer, unassigned) [Compound 65*]
Ki [1]: 0.0519 µM | EC50 [2]: 0.018 µM | EC50 (EpiSC-derived OPCs): 0.065 µM

CC(C)n1nc(-c2cccc(C(F)(F)F)c2)nc1[C@H]1[C@@H]2C[C@H](N3CCC4(CC3)CS(=O)(=O)C4)C[C@@H]21 [Compound 74, 7-((1R,3r,5S,6r)-6-(1-isopropyl-3-(3-(trifluoromethyl)phenyl)-1H-1,2,4-triazol-5-yl)bicyclo[3.1.0]hexan-3-yl)-2-thia-7-azaspiro[3.5]nonane 2,2-dioxide]
EC50 [2]: 0.0039 µM | EC50 (EpiSC-derived OPCs): 0.013 µM

CCn1nc(-c2ccnc(C(F)(F)F)c2)cc1[C@H]1[C@@H]2C[C@@H](N3CCC4(C3)CS(=O)(=O)C4)C[C@@H]21 [Compound 26, 6-((1R,3s,5S,6r)-6-(1-ethyl-3-(2-(trifluoromethyl)pyridin-4-yl)-1H-pyrazol-5-yl)bicyclo[3.1.0]hexan-3-yl)-2-thia-6-azaspiro[3.4]octane 2,2-dioxide]
Ki [1]: 0.0198 µM | EC50 [2]: 0.0044 µM | EC50 (EpiSC-derived OPCs): 0.0065 µM

CC(C)(C)n1nc(C(F)(F)F)cc1[C@H]1[C@@H]2C[C@@H](N3CCC4(CC3)CS(=O)(=O)C4)C[C@@H]21 (single isomer, unassigned) [Compound 55]
EC50 [2]: 0.003 µM | EC50 (EpiSC-derived OPCs): 0.0033 µM

CC(C)n1nc(C(F)(F)F)cc1[C@H]1[C@@H]2C[C@@H](N3CCC[C@@]4(CCS(=O)(=O)C4)C3)C[C@@H]21 (single isomer, unassigned) [Compound 92*]
EC50 [2]: 0.0451 µM | EC50 (EpiSC-derived OPCs): 0.0584 µM
